Each block holds one compound with its values, some of them ahead of it. Calls of active or inactive are those of the source.
Key:
[1] = target: T1, Microphthalmia-associated transcription factor (Homo sapiens, UniProt O75030); assay: reducers of TRPM1 reporter luminescence, concentration series – cell-based, SK-MEL-5, cherry-picked, set 3, MITF inhibitor project, dose response (AID 493073); format: functional;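 note: SK-MEL-5 melanoma cells with luciferase driven by the MITF target TRPM1 promoter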
T1 sequence (O75030 whole entry): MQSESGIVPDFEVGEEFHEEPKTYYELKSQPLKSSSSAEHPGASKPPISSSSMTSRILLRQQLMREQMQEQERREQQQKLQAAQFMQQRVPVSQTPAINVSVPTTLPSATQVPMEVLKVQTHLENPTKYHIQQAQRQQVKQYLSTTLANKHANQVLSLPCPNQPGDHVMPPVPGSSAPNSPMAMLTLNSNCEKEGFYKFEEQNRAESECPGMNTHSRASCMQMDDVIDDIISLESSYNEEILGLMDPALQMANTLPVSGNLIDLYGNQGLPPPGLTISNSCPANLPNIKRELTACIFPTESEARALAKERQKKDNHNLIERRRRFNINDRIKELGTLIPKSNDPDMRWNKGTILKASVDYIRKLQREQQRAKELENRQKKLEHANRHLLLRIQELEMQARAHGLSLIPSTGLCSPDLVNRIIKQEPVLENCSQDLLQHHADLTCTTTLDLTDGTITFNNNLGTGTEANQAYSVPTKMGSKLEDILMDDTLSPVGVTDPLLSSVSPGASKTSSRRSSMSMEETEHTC

[2] = target: T2, High affinity choline transporter 1 (Homo sapiens, UniProt Q9GZV3); assay: human choline transporter blockers, potency – cell-based, 5-point CRC, membrane potential dye, dose response (AID 504840); format: functional
T2 sequence (Q9GZV3 whole entry): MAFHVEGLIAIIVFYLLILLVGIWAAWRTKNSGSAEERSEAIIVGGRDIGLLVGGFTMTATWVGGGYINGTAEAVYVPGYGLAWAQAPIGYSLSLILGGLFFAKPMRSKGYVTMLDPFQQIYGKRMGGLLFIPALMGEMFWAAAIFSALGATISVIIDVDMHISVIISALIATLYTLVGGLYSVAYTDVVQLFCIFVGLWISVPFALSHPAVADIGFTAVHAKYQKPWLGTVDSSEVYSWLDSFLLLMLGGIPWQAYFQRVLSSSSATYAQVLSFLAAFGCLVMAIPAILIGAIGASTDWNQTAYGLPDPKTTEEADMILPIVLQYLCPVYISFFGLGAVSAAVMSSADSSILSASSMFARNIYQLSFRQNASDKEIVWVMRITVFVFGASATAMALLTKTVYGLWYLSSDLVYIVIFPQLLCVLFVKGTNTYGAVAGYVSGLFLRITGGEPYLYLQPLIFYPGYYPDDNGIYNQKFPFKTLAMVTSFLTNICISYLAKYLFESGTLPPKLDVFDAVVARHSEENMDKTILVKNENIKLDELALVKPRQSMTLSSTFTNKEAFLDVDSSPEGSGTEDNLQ

[3] = target: T2, High affinity choline transporter 1; assay: human choline transporter blockers, potency – cell-based, 10-point CRC, membrane potential dye, dose response (AID 588401); format: functional;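 note: membrane potential dye fluorescence of choline-evoked depolarization via CHT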
[4] = Trypanosoma cruzi growth suppression in host cells – NIH3T3 host cells, beta-gal luminescence, confirmation (AID 2044); format: functional, cell-based;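 note: intracellular parasites grown in NIH/3T3 mouse fibroblasts as host cells; luminescent beta-galactosidase reporter signal from transgenic T. cruzi replicating inside host cells; inhibitors lower the luminescence signal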
[5] = NIH3T3 cell viability loss – ATP luminescence, mouse fibroblasts, counter-screen, dose response (AID 2010); format: functional, cell-based;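 note: cells exposed to compound for about 90 hours before reading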
[6] = cells
[7] = target: T3, Short transient receptor potential channel 4 (Mus musculus, UniProt Q9QUQ5); assay: calcium entry via TRPC4 opening agents – cell-based, HEK293 TRPC4/mu-opioid, Fluo-4 calcium, dose response (AID 434937); format: functional
T3 sequence (Q9QUQ5 whole entry): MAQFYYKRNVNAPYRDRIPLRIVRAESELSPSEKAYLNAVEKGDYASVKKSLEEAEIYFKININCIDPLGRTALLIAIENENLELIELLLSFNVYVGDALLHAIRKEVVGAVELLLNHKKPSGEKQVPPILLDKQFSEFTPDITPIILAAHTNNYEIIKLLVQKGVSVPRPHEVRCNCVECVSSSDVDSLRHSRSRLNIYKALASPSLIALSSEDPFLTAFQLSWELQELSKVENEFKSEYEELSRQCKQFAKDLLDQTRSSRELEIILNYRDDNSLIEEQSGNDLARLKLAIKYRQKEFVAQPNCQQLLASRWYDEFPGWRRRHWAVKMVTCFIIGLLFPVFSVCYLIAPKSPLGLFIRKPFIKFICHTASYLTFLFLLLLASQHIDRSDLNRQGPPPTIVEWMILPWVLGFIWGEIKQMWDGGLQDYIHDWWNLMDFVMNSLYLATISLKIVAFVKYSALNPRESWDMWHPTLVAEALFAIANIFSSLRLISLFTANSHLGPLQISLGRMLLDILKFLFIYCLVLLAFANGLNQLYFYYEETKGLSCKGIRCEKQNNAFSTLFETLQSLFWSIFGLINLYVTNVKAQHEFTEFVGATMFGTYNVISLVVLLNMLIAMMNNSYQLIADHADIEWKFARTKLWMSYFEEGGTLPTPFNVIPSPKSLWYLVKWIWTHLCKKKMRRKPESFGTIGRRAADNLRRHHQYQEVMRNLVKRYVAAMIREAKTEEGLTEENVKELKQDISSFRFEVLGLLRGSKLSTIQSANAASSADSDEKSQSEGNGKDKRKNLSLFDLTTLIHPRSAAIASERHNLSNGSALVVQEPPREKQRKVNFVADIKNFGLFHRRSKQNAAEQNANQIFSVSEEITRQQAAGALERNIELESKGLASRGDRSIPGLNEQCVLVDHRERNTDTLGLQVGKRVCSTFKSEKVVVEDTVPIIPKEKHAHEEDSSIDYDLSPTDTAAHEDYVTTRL

[8] = system: INS1; assay: INS-1E survival protection against cytokine death – cell-based, luminescence, retest, dose response (AID 449756); format: functional; conditions: Rattus norvegicus;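 note: cell death triggered by IL-1 beta plus TNF-alpha plus IFN-gamma mixture; protective hits raise ATP signal compared with cytokine alone wells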
[9] = system: Streptococcus; assay: GAS UMAA2166 growth inhibition – luminescence, BacTiterGlo, counter-screen for streptokinase expression inhibitor project, dose response (AID 1915); format: functional, organism-based;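 note: potency for reduction of bacterial viability or growth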
[10] = target: Heat shock protein HSP 90-alpha (Homo sapiens, UniProt P07900); format: functional, organism-based
[11] = NIH-3T3 fibroblast cytotoxicity, dose response, cytotoxicity control, cell-based, fluorescence, Alamar Blue, secondary assay (AID 2327); format: functional;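 note: NIH-3T3 mouse fibroblasts cultured with fluconazole at 8 µg/mL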
[12] = target: Luciferin 4-monooxygenase (Photinus pyralis, UniProt P08659); assay: inhibition of purified Photinus pyralis luciferase – biochemical, luminescence, dose response (AID 1891)
Luciferin 4-monooxygenase, sequence (P08659 whole entry): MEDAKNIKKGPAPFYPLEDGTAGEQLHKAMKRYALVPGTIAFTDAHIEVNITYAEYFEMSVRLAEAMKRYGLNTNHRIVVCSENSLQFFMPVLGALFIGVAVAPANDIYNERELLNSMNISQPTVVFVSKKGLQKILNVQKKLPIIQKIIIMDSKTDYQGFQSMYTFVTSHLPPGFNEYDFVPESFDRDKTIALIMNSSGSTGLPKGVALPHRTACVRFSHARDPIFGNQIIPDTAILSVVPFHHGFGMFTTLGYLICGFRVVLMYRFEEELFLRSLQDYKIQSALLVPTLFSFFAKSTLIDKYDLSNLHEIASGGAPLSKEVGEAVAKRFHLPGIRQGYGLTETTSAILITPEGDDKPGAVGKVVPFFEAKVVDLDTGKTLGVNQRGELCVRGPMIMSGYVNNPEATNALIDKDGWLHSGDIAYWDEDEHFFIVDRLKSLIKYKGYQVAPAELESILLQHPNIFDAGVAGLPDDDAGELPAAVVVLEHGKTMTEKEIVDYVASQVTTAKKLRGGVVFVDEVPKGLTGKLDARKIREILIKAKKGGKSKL

[13] = system: Streptococcus sp. 'group A'; assay: Streptococcus pyogenes SK(-)GAS viability under kanamycin – luminescence, BacTiterGlo, confirmation, counter-screen for streptokinase expression inhibitor project, dose response (AID 1900); format: functional, organism-based
[14] = Luminescence Cell-Based Dose Confirmation HTS to Identify Inhibitors of Platelet Dense Granule Release. [Related pubchem assays: 1663 (Primary HTS), 1678 (Summary of Project)]; format: functional
[15] = system: HEK293; assay: EBV LMP1 TES2 canonical NF-kB signalling blockers – cell-based, HEK293, luciferase, cherry-pick, dose response (AID 588343); format: functional; conditions: Homo sapiens
[16] = fluconazole-exposed Candida albicans growth modulators – fluorescence, retest, confirmation (AID 2467); format: functional, cell-based
[17] = target: T3, Short transient receptor potential channel 4; assay: block of DAMGO-driven TRPC4 calcium entry – cell-based, HEK293 TRPC4/mu-opioid, Fluo-4 calcium, dose response (AID 434942); format: functional;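 note: potency of inhibitors blocking the TRPC4 calcium response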
[18] = target: T4, Heat shock factor protein 1 (Mus musculus, UniProt P38532); assay: decrease of HSF1-responsive luciferase luminescence – cell-based, NIH3T3, dose retest, confirmation (AID 2382); format: functional;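 note: NIH3T3 fibroblasts with HSF1-driven luciferase reporter stressed by proteasome inhibitor MG132; luminescence from HSF1-driven luciferase expression after 8 hours of MG132 stress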
T4 sequence (P38532 whole entry): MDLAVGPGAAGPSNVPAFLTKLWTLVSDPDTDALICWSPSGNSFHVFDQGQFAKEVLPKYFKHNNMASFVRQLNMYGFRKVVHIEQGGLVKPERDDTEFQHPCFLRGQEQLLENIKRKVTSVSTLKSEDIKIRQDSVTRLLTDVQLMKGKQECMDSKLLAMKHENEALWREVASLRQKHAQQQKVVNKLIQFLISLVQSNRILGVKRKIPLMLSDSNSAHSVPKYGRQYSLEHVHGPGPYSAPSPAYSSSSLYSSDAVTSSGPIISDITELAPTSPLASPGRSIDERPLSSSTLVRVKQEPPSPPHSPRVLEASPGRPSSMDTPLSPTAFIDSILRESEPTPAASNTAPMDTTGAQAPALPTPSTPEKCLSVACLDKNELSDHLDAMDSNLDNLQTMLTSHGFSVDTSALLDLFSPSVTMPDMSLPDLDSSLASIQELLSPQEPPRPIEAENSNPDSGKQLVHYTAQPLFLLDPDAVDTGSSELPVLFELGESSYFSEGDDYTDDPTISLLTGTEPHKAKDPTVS

[19] = Luminescence-based cell-based high throughput dose response assay to identify activators of the DAF-12 from the parasite S. stercoralis (ssDAF-12).; format: functional
[20] = target: T5, Voltage-gated N-type calcium channel alpha-1B subunit/Amyloid beta A4 precursor protein-binding family A member 1 (Homo sapiens, UniProt Q00975+Q02410); format: protein assay
T5 sequence (Q00975 whole entry): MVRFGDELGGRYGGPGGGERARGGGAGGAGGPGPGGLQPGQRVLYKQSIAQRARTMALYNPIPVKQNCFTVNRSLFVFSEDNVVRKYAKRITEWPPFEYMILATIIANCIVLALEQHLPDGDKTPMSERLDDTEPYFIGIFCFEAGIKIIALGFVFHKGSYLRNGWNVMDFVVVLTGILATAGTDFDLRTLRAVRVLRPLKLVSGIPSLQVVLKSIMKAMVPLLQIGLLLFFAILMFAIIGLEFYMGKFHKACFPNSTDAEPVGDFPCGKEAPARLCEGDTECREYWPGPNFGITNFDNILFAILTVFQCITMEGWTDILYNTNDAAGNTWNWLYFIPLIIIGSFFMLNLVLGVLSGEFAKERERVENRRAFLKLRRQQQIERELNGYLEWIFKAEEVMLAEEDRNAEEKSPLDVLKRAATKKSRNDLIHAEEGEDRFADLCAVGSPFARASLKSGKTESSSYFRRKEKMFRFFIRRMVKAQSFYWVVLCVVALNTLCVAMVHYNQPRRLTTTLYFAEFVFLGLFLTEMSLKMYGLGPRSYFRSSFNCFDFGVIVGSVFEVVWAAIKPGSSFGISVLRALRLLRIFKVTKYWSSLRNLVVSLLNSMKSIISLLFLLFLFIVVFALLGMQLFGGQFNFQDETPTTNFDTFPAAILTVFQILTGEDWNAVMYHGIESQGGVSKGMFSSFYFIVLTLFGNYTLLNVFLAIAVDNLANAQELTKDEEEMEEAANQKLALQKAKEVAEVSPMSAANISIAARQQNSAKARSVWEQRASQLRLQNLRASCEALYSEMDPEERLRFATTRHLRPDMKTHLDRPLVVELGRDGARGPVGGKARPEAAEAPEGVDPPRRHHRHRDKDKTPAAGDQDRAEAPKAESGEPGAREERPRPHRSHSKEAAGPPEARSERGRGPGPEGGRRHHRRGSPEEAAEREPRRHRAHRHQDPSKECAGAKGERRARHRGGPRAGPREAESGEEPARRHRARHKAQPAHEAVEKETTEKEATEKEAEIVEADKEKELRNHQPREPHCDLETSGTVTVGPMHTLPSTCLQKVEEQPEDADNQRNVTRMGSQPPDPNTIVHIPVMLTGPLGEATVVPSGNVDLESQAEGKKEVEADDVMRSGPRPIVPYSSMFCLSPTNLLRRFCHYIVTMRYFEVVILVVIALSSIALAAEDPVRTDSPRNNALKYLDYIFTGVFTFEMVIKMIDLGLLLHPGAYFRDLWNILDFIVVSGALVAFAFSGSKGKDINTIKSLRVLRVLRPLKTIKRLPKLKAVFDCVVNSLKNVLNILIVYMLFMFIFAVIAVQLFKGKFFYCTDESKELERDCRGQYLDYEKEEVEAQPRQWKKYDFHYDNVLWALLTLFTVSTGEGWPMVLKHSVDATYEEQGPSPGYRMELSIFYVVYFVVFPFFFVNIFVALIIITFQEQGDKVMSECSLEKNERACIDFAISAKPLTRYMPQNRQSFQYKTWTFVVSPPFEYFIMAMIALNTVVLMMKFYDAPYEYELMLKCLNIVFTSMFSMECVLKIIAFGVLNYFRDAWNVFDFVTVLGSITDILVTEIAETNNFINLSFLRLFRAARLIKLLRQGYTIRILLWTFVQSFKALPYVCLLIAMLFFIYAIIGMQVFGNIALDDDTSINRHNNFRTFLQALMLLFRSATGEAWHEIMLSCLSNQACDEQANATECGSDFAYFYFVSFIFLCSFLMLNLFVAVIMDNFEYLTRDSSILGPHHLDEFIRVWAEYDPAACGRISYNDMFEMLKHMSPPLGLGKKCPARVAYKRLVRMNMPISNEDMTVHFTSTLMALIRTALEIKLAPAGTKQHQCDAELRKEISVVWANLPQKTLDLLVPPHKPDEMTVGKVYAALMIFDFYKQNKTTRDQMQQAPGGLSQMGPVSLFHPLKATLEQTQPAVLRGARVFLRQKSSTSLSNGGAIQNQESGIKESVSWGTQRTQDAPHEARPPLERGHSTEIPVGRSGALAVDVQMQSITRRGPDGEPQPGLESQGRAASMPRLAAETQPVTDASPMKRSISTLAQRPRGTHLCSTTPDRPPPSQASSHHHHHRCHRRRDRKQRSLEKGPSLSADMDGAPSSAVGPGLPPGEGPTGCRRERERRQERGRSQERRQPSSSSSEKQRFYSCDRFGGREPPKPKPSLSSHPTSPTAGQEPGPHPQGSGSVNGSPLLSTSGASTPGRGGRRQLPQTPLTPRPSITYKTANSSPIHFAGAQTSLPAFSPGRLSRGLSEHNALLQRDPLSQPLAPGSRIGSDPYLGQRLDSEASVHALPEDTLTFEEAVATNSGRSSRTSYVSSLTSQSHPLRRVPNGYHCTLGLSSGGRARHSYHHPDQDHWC
T5 sequence (Q02410 whole entry): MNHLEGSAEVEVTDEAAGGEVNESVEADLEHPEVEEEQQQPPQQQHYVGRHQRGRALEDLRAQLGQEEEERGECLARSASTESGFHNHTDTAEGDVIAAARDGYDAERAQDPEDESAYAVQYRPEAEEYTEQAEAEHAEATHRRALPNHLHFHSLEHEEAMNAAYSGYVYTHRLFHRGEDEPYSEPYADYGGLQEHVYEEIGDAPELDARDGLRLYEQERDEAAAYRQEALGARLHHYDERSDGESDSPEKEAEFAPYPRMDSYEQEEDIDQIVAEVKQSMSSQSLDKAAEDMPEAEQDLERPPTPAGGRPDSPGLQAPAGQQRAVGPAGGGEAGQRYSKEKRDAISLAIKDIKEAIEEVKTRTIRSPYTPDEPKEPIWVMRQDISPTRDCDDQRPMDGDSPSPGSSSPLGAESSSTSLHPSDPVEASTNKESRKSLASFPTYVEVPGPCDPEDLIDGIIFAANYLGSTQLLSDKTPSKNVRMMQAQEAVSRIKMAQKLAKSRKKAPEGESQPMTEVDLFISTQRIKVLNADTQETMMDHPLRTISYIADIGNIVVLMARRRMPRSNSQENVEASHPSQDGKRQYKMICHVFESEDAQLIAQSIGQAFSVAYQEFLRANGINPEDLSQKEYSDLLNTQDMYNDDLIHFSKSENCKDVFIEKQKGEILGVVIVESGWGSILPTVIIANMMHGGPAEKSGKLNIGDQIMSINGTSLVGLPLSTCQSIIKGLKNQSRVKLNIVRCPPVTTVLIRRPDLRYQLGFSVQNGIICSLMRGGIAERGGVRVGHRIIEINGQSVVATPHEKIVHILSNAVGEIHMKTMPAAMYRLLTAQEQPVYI

[21] = target: T6, Calpain-2 catalytic subunit (Sus scrofa, UniProt P43367); assay: m-calpain protease blockers, concentration series – biochemical, fluorogenic peptide substrate, dose response (AID 1420); format: functional
T6 sequence (P43367 whole entry): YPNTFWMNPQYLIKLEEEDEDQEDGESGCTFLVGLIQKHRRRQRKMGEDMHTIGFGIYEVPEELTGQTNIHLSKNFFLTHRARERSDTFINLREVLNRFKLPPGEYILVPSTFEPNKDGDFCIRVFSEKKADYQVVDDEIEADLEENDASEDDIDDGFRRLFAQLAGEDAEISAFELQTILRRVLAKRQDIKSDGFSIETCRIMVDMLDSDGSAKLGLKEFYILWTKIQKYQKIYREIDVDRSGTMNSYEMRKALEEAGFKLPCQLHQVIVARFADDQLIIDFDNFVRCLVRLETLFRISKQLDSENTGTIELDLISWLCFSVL

[22] = target: T5, Voltage-gated N-type calcium channel alpha-1B subunit/Amyloid beta A4 precursor protein-binding family A member 1; format: protein assay; remark: listed apart in the source
[23] = viability of HCT116 lacking mutant beta-catenin – cell-based, human colon tumor, dose response (AID 1045); format: functional;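 note: HCT116 colon tumor cells with beta catenin knocked out; cells exposed to compound for 60 hours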
[24] = viability of PTEN-deleted HCT116 cells – cell-based, HCT116 PTEN knockout, dose response (AID 1047); format: functional;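 note: HCT116 colon tumor cells with PTEN knocked out; cells exposed to compound for 60 hours before readout; potency for loss of cell viability measured by luminescence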
[25] = target: Cytochrome P450 2D6 (Homo sapiens, UniProt P10635);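 note: CYP2D6 member of a cytochrome P450 panel assay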
Cytochrome P450 2D6, sequence (P10635 whole entry): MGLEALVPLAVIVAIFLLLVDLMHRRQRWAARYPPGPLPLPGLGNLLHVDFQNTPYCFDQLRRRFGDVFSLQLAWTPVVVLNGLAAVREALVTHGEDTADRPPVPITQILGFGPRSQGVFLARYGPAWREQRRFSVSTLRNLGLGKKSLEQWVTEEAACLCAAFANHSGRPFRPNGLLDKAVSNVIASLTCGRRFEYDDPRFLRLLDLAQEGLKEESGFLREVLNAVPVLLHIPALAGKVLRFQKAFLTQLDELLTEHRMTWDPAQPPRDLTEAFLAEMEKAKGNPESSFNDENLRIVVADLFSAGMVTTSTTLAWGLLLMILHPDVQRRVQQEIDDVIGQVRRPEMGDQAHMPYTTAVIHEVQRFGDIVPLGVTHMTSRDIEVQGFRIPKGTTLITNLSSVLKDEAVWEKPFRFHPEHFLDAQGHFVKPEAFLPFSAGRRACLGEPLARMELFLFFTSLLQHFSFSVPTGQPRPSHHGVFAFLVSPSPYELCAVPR

AC50 [1]: 1.78 µM (active)
Structure (SMILES): N#Cc1cc2c(nc1SC1CC(=O)N(c3ccccc3)C1=O)CCC2 (stereo not given)

IC50 [2]: 9.39 µM (active) | IC50 [3]: 8.43 µM (active)
Structure (SMILES): Cc1cccc(N2CCN(C(=O)CCCn3c(=O)[nH]c4ccsc4c3=O)CC2C)c1 (stereo not given)

Structure (SMILES): CCc1ccc(CN(C)CCc2ccccn2)cc1
EC50 [4]: < 0.1 µM (active) | EC50 [5]: > 30 µM (not active) | EC50 [6]: 0.035 µM (active)

Structure (SMILES): COc1ccc(S(=O)(=O)N2CCCCC2)cc1NC(=O)c1ccc([N+](=O)[O-])o1
EC50 [4]: 4.55 µM (active) | EC50 [5]: 11.9 µM (active) | AC50 [1]: 9.14 µM (active)

Structure (SMILES): CCn1c2ccccc2c2cc(CNCCCN3CCOCC3)ccc21
EC50 [4]: < 0.1 µM (active) | EC50 [5]: > 60 µM (not active) | EC50 [6]: 0.013 µM (active)

EC50 [7]: 0.0173 µM (active)
Structure (SMILES): CN(C)C(CN=C(S)Nc1ccc(F)cc1)c1cccnc1 (stereo not given)

Structure (SMILES): O=C(NC(c1ccc(Cl)cc1)c1cc(Cl)c2cccnc2c1O)c1cccnc1 (stereo not given)
AC50 [8]: 0.951 µM (active) | EC50 [9]: 1.36 µM (active) | AC50 [10]: 24.2 µM (active) | EC50 [11]: 8.56 µM (inconclusive) | EC50 [12]: > 112 µM (not active) | EC50 [13]: 0.73 µM (active) | EC50 [14]: > 112 µM (not active) | EC50 [4]: 0.253 µM (active) | AC50 [15]: 2 µM (active) | EC50 [16]: 0.66 µM (active) | EC50 [5]: 6.88 µM (active)

IC50 [2]: 8.33 µM (active) | IC50 [3]: 4.01 µM (active)
Structure (SMILES): O=c1c2ccccc2[nH]c(=S)n1CCN1CCCC1

Structure (SMILES): CN1CCC(CNC(=O)Nc2ccccc2)(c2ccccc2)CC1
EC50 [7]: 1.33 µM (active)

Structure (SMILES): COc1ccc2nc(N(CCN(C)C)C(=O)c3ccc4c(c3)OCCO4)sc2c1
EC50 [4]: < 0.1 µM (active) | EC50 [5]: > 60 µM (not active) | EC50 [6]: 0.095 µM (active)

IC50 [2]: 0.158 µM (active) | IC50 [3]: 0.0829 µM (active)
Structure (SMILES): N#Cc1c(N)nc(SCc2ccccn2)c(C#N)c1-c1cccs1

EC50 [7]: 2.99 µM (active) | EC50 [17]: 1.06 µM (active) | EC50 [18]: > 195 µM (not active)
Structure (SMILES): CCc1ccc(C(CNc2nc(C(F)(F)F)nc3ccccc23)N(C)C)cc1 (stereo not given)

EC50 [7]: 10.6 µM (active) | EC50 [17]: 1.68 µM (active)
Structure (SMILES): CCN=C(S)N1CCC(C(O)(c2ccccc2)c2ccccc2)CC1

Structure (SMILES): COC1CCC(OC2CC(C3(C)CCC4(CC(O)C(C)C(C(C)/C=C(\C)C(=O)C(C)CC(C)C(=O)O)O4)O3)OC3(OC(C4OC(O)(CO)C(C)CC4C)CC3C)C2C)OC1C (stereo not given)
AC50 [10]: 5.72 µM (active)

Structure (SMILES): COc1cccc(/N=c2\oc3ccc(OC)cc3cc2-c2nc3ccccc3[nH]2)c1
IC50 [19]: > 67.5 µM (inactive) | IC50 [20]: > 50 µM (inactive) | IC50 [21]: 7.91 µM (active) | IC50 [22]: 41 µM (active)

Structure (SMILES): COc1cccc(Nc2nc(NCC3CCCO3)c3ccccc3n2)c1 (stereo not given)
EC50 [4]: < 0.1 µM (active) | EC50 [5]: > 30 µM (not active) | EC50 [6]: 0.443 µM (active) | EC50 [23]: 7.05 µM (active) | EC50 [24]: 7.57 µM (active)

IC50 [2]: 0.0214 µM (active) | AC50 [25]: 10 µM (inconclusive) | IC50 [3]: 1.12 µM (active)
Structure (SMILES): Cc1nccn1C[C@@H]1CCc2c(c3ccccc3n2C)C1=O [(S)-ONDANSETRON]
